According to patent publication US3939150A, “Penicillin derivatives” (priority 1973, dated 1976):
Entries after “also recorded” stand apart in the source; their conditions may differ.

How the values were obtained:
[1] = cited from earlier work
[2] = system: Pseudomonas aeruginosa NC-5 strain; experiment: Protective effect against experimentally infected mice, two oral administrations; format: in vivo, mice infected with Pseudomonas aeruginosa
Protocol: c. Mice (one group included five mice) were infected with Pseudomonas aeruginosa NC-5 strain via the intraperitoneal route and the test substance was orally administered twice, i. e., immediately after challenge of the test organism and after 2 hours.

[3] = system: Escherichia coli 31 strain; experiment: MIC distribution, clinical isolated strains; format: cell-based; settings: of 31 strains
Source text: (Escherichia coli 31 strain)
(§1) It is clear from the results shown in the above tables, as regards the antibacterial activities against clinical isolated strains, the compounds of this invention show quite high activity against not only Pseudomonas aeruginosa but also against Klebsiella as compared with carbenicillin

[4] = system: Proteus mirabilis 1287 strain; experiment: Protective effect against experimentally infected mice, one subcutaneous administration; format: in vivo, mice infected with Proteus mirabilis; settings: s.c. once, 2 hours after challenge
Protocol: d. Mice (one group included five mice) were infected with Proteus mirabilis 1287 strain via the intraperitoneal route and a solution prepared by dissolving the test antiobiotics in sterilized distilled water was once administered by subcutaneous injection 2 hours after of challenge of the test organism.

[5] = system: Pseudomonas aeruginosa 35 strain; experiment: MIC distribution, clinical isolated strains; format: cell-based; settings: of 35 strains
Source text: (Pseudomonas aeruginosa 35 strain)
as §1

male Sprague-Dawley rats [6] = experiment: Nephrotoxicity after 1 week subcutaneous injection; format: in vivo; settings: 7 days
Protocol: b. Test antibiotics were administered to male Sprague-Dawley rats by subcutaneous injection daily for 7 days. After seven days, animals were sacrificed and estimated for organ weight and serum urea-nitrogen including visual studies of kidney.

male Sprague-Dawley rats [7] = experiment: Acute nephrotoxicity in combination with glycerol and furocemide in rats; format: in vivo; settings: for Serum urea nitrogen: with glycerol 4 ml/Kg of 50% and furocemide 50 mg/Kg s.c., 48 hours; for serum urea nitrogen relative to control group (in words): with glycerol and furocemide
Protocol: c. Glycerol (50%, 4 ml/kg), furocemide (50 mg/kg) and test actibiotics were injected subcutaneously in male Sprague-Dawley rats. […] Animals of each group were sacrificed 48 hours later to estimate serum urea-nitrogen values.

[8] = system: Pseudomonas aeruginosa NC-5 strain; experiment: Protective effect against experimentally infected mice, three subcutaneous administrations; format: in vivo, mice infected with Pseudomonas aeruginosa; settings: s.c.
Protocol: b. Mice (one group included five mice) were infected with pseudomonas aeruginosa NC-5 strain via intraperitoneal route and a solution prepared by dissolving the test substance in sterilized distilled water was administered by subcutaneous injection three times, i. e., immediately after challenge of the test organism, after 2 hours, and after 4 hours.

Klebsiella genus = settings: background; cited from earlier work
Klebsiella 78 strain = experiment: MIC distribution, clinical isolated strains; format: cell-based; settings: of 78 strains; for number of strains with MIC 100: MIC 100 μ/ml
Source text: as §1

[9] = system: Pseudomonas aeruginosa NC-5 strain; experiment: Protective effect against experimentally infected mice, one subcutaneous administration; format: in vivo, mice infected with Pseudomonas aeruginosa; settings: s.c. once
Source text: a. Mice (one group included five mice) were infected with pseudomonas aeruginosa NC-5 strain the intraperitoneal route and a solution prepared by dissolving the test antibiotics in sterilized distilled water was once administered by subcutaneous injection immediately after challenge of the test organism and then the numbers of living mice were inspected. […] (The figures shown in Tables VII-IX have the same meaning).

male dd-N mice = experiment: Acute toxicity (minimum lethal dose); format: in vivo
Source text: a. The minimum lethal doses (MLD) when the compound of this invention was intravenously and subcutaneously administered to male dd-N mice are shown in Table X.

gram negative bacteria = settings: background; cited from earlier work
male Sprague-Dawley rats [10] = settings: small dose subcutaneously; cited from earlier work

CC1(C)S[C@@H]2[C@H](NC(=O)[C@H](N)c3ccc(O)cc3)C(=O)N2[C@H]1C(=O)O [Amoxicillin, α-amino-p-hydroxybenzylpenicillin]
concentration in blood by oral administration [1]: high concentration in blood by oral administration | number of living mice / number of mice inspected ([2]; 25 × 2 mg): 0/5 | number of living mice / number of mice inspected ([2]; 50 × 2 mg): 0/5 | number of living mice / number of mice inspected ([2]; 100 × 2 mg): 0/5

CC1(C)S[C@@H]2[C@H](NC(=O)C(C(=O)O)c3ccccc3)C(=O)N2[C@H]1C(=O)O (stereo partly drawn) [Carbenicillin, α-carboxybenzylpenicillin]
number of strains with MIC 1.56 ([3]; MIC 1.56 μ/ml): 1 | number of strains with MIC […] ([3]; MIC 3.13 μ/ml): 7 | number of strains with MIC […] ([3]; MIC 6.25 μ/ml): 8 | number of strains with MIC 12.5 ([3]; MIC 12.5 μ/ml): 6 | number of strains with MIC 25 ([3]; MIC 25 μ/ml): 0 | number of strains with MIC 50 ([3]; MIC 50 μ/ml): 0 | number of strains with MIC 100 ([3]; MIC 100 μ/ml): 0 | number of strains with MIC >100 ([3]; MIC >100 μ/ml): 9 | number of living mice / number of mice inspected ([4]; 1.25 mg): 0/5 | number of living mice / number of mice inspected ([4]; 2.5 mg): 1/5 | number of living mice / number of mice inspected ([4]; 5 mg): 2/5 | number of living mice / number of mice inspected ([4]; 10 mg): 4/5 | number of strains with MIC 1.56 ([5]; MIC 1.56 μ/ml): 0 | number of strains with MIC […] ([5]; MIC 3.13 μ/ml): 0 | number of strains with MIC […] ([5]; MIC 6.25 μ/ml): 0 | number of strains with MIC 12.5 ([5]; MIC 12.5 μ/ml): 0 | number of strains with MIC 25 ([5]; MIC 25 μ/ml): 3 | number of strains with MIC 50 ([5]; MIC 50 μ/ml): 4 | number of strains with MIC 100 ([5]; MIC 100 μ/ml): 8 | number of strains with MIC >100 ([5]; MIC >100 μ/ml): 20 | Kidney weights (male Sprague-Dawley rats [6]; 1000 mg/Kg/day sc): 2.53 g | Serum urea-N (male Sprague-Dawley rats [6]; 1000 mg/Kg/day sc): 24.0 mg/dL | renal findings (male Sprague-Dawley rats [6]; 1000 mg/Kg/day sc): no abnormal findings | Serum urea nitrogen (male Sprague-Dawley rats [7]; 1000 mg/Kg s.c.): 29.7 ± 7.2 mg/dL | nephrotoxicity (in words) (male Sprague-Dawley rats [7]; rat, in vivo): no nephrotoxicity resulted | serum urea nitrogen relative to control group (in words) (male Sprague-Dawley rats [7]): no remarkable difference | number of living mice / number of mice inspected ([8]; 2.5 × 3 mg): 2/5 | number of living mice / number of mice inspected ([8]; 5 × 3 mg): 0/5 | number of living mice / number of mice inspected ([8]; 10 × 3 mg): 5/5 | activity against the Klebsiella genus (in words) (Klebsiella genus): weak antibacterial activity against the Klebsiella genus | number of strains with MIC 1.56 (Klebsiella 78 strain; MIC 1.56 μ/ml): 1 | number of strains with MIC […] (Klebsiella 78 strain; MIC 3.13 μ/ml): 1 | number of strains with MIC […] (Klebsiella 78 strain; MIC 6.25 μ/ml): 1 | number of strains with MIC 12.5 (Klebsiella 78 strain; MIC 12.5 μ/ml): 0 | number of strains with MIC 25 (Klebsiella 78 strain; MIC 25 μ/ml): 0 | number of strains with MIC 50 (Klebsiella 78 strain; MIC 50 μ/ml): 8 | number of strains with MIC 100 (Klebsiella 78 strain; first column headed 100): 8 | number of strains with MIC 100 (Klebsiella 78 strain; second column headed 100): 16 | number of strains with MIC 400 (Klebsiella 78 strain; MIC 400 μ/ml): 16 | number of strains with MIC >400 (Klebsiella 78 strain; MIC >400 μ/ml): 27 | number of living mice / number of mice inspected ([9]; 15 mg): 1/5 | number of living mice / number of mice inspected ([9]; 30 mg): 2/5 | number of living mice / number of mice inspected ([9]; 60 mg): 4/5 | MLD (male dd-N mice; i.v.): 7000 mg/kg | MLD (male dd-N mice; s.c.): > 10000 mg/kg

O=C(Cc1cccs1)N[C@@H]1C(=O)N2C(C(=O)[O-])=C(C[n+]3ccccc3)CS[C@H]12 [Cephaloridine]
Serum urea nitrogen (male Sprague-Dawley rats [7]; 500 mg/Kg s.c.): 50.7 ± 13.6 mg/dL | serum urea nitrogen relative to control group (in words) (male Sprague-Dawley rats [7]): remarkable increase of serum urea nitrogen

CC1(C)S[C@@H]2[C@H](NC(=O)[C@H](N)C3=CCC=CC3)C(=O)N2[C@H]1C(=O)O [Epicillin, 6-[D-2-amino-2-(1,4-cyclohexadien-1-yl)acetamido]penicillanic acid]
activity to gram negative bacteria (in words) (gram negative bacteria): selective antibacterial activity to, in particular, gram negative bacteria

NC[C@H]1O[C@H](O[C@H]2[C@H](O)[C@@H](O[C@H]3O[C@H](CO)[C@@H](O)[C@H](N)[C@H]3O)[C@H](N)C[C@@H]2N)[C@H](O)[C@@H](O)[C@@H]1O [Kanamycin]
Kidney weights (male Sprague-Dawley rats [6]; 500 mg/kg/day sc): 3.52 g | Serum urea-N (male Sprague-Dawley rats [6]; 500 mg/kg/day sc): 70.7 mg/dL | renal findings (male Sprague-Dawley rats [6]; 500 mg/kg/day sc): renal hypertropy, ischemia of renal cortex; also recorded: abnormal increase of serum urea-nitrogen values; also recorded: severe renal impairement

OCC(O)CO [glycerol]
renal impairment (male Sprague-Dawley rats [10]): mild and reversible renal impairment
